Measurements reported in US6303618A, “Cyclin dependent kinase inhibiting purine derivatives” (priority 1997, dated 2001).
Where “and” joins values, the source holds several entries; their conditions need not be identical. Equal entries are not always repeated. Where two headings read alike, the source gives them in different places.

Assays:
[1] = target: CDK1 (p34 cdc2)/cyclin B; test: CDK inhibition assay (histone H1 kinase), CDK1; assay type: biochemical, starfish (Marthasterias glacialis); conditions: for IC50: CDK1; for IC50 / effect of side chain at N9 or N7, or halo at C2, on activity: Table 1; for effect of side chain at N9 or N7, or halo at C2, on activity: in words; for % inhibition CDK1: at 100 μM
Procedure: (§1) By way of example, however, a typical protocol is summarised below.
Histone H1 (type III-S (Sigma) 4° C.) 5 mg/ml in buffer C.
[^32 P]ATP […]: Make up using (multiples of) the following proportions:
DMSO cannot exceed 1% in the assay mixture. Inhibitors are added at 1/10 final assay volume and 10×final strength. DMSO stocks must therefore be diluted to 10×final desired concentration in ≤10% DMSO, ≥90% buffer C.
Start reaction in each tube at 30 second intervals by adding
5 ml [^32 P]ATP vortexing and placing in rack in waterbath at 30° C.
Terminate reaction after 10 min at 30 second intervals in tubes in same order by removing
25 ml reaction mix and spotting onto appropriately labelled filter, allowing to dry for 20-30 seconds and transferring to stirring 1% phosphoric acid.
Blank incubation is performed as above but without histone (add […] buffer C instead) Washing blank is […] ATP added directly to filter.

[2] = target: CDK2 (Homo sapiens, UniProt P24941); test: CDK inhibition assay, CDK2; assay type: biochemical; conditions: for IC50: Table 1
Excerpt: (§2) Apart from reference compounds, the compounds listed are accompanied by an NU reference or identification code number.
as §1

[3] = target: CDK4 (Homo sapiens, UniProt P11802); test: CDK inhibition assay, CDK4; assay type: biochemical; conditions: CDK4; Table 1; read-out: IC50 CDK4
CDK4, sequence (P11802 whole entry, species assumed): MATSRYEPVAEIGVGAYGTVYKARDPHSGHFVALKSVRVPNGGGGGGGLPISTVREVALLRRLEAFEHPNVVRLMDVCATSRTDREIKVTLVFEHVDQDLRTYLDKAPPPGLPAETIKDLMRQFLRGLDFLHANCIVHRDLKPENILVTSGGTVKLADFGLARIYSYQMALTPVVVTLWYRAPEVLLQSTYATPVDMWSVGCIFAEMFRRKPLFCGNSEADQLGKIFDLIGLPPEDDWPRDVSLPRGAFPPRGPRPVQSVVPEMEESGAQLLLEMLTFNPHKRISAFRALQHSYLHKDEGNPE
CDK4, sequence (P24385 whole entry partner, species assumed): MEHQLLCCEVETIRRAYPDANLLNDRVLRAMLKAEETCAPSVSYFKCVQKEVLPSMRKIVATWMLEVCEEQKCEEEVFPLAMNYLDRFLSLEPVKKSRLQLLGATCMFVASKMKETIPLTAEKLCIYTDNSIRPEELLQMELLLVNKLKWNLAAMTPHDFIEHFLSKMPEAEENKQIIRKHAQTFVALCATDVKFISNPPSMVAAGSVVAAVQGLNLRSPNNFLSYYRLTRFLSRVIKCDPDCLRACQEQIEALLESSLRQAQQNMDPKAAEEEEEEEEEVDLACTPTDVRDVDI
Excerpt: as §2, §1

[4] = read-out: % inhibition CDK2, at 100 μM
[5] = at 100 μM, read-out: % inhibition CDK2

Nc1nc(OCc2ccco2)c2nc[nH]c2n1 [2-amino-6-(2-furanyl)-methyloxypurine]
IC50 [1]: 75 µM

c1ccc(COc2ncnc3nc[nH]c23)cc1 [NU2002, 6-Benzyloxypurine]
IC50 [1]: 51 µM

COc1nc(N)nc2nc[nH]c12 [NU2004, 2-amino-6-methoxypurine]
IC50 [1]: 200 µM

Nc1nc(OCc2ccccc2)c2[nH]cnc2n1 [NU2005, 2-amino-6-benzyloxypurine]
IC50 [1]: 35 µM | IC50 ([2]; IC50 CDK2, CDK2): 28.6 µM | inhibition at 100 µM [2, 4]: 64 ± 3% | IC50 [3]: 100 µM

C=CCOc1ncnc2nc[nH]c12 [NU2013, 6-Allyloxypurine]
IC50 [1]: 110 µM

c1nc(OCC2CCCCO2)c2[nH]cnc2n1 (stereo not drawn) [NU2014, 6-(2-tetrahydropyranyl-methyloxy)purine]
IC50 [1]: > 100 µM

c1nc(OCC2CCCCC2)c2[nH]cnc2n1 [NU2017, 6-cyclohexylmethoxypurine]
IC50 [1]: 16 µM | IC50 ([2]; CDK2, read-out: IC50 CDK2): 15.5 µM | inhibition at 100 µM [2, 4]: 61 ± 2%

c1ccc(CCOc2ncnc3nc[nH]c23)cc1 [NU2023, 6-(2-Phenylethyloxy)purine]
IC50 [1]: 130 µM

C=CCOc1nc(N)nc2nc[nH]c12 [NU2028, 2-amino-6-allyloxypurine]
IC50 [1]: 50 µM | IC50 [3]: > 100 µM

C#CCOc1nc(N)nc2[nH]cnc12 [NU2031, O^6 -Propargylguanine]
IC50 [1]: 60 µM

CCOC(C)(COc1nc(N)nc2[nH]cnc12)OCC [NU2032, 2-amino-6-(2,2-diethoxy) propoxypurine]
IC50 [1]: > 100 µM

Nc1nc(OCC(=O)c2ccccc2)c2nc[nH]c2n1 [NU2033, O^6-(2-Oxo-2-phenylethyl)guanine]
IC50 [1]: 100 µM

C=C(C)COc1nc(N)nc2[nH]cnc12 [NU2034, O^6-(2-Methylallyl)guanine]
IC50 [1]: 32 µM

CC(=O)COc1nc(N)nc2[nH]cnc12 [NU2035, O^6-(2-Oxopropyl)guanine]
IC50 [1]: 100 µM

C=CCOc1nc(N)nc2c1ncn2CC=C [NU2036, N^9,O^6 -Diallylguanine]
IC50 [1]: > 1000 µM | effect of side chain at N9 or N7, or halo at C2, on activity [1]: activity drastically diminishes

C=CCOc1nc(N)nc2ncn(CC=C)c12 [NU2037, N^7,O^6 -Diallylguanine]
IC50 [1]: > 1000 µM | effect of side chain at N9 or N7, or halo at C2, on activity [1]: activity drastically diminishes

C=CCOc1nc(N)nc2c1ncn2Cc1ccccc1 [NU2038, O^6 -Allyl-N^9 -benzylguanine]
IC50 [1]: > 1000 µM | effect of side chain at N9 or N7, or halo at C2, on activity [1]: activity drastically diminishes

Nc1nc(OCC(O)CO)c2nc[nH]c2n1 (stereo not drawn) [NU2040, 2-amino-6-(2,3-dihydroxy) propoxypurine]
IC50 [1]: > 100 µM

Nc1nc(OCCc2ccccc2)c2nc[nH]c2n1 [NU2041, O^6-(2-Phenylethyl)guanine]
IC50 [1]: 100 µM

C=C(COc1nc(N)nc2[nH]cnc12)c1ccccc1 [NU2042, O^6-(2-Phenylallyl)guanine]
IC50 [1]: 40 µM | IC50 ([2]; CDK2, read-out: IC50 CDK2): 23.3 µM | inhibition at 100 µM [2, 4]: 75 ± 2% | IC50 [3]: > 100 µM and 330 µM

COCC(COc1nc(N)nc2nc[nH]c12)OC (stereo not drawn) [NU2044, 2-amino-6-(2,3-dimethoy)propoxypurine]
IC50 [1]: > 100 µM

CCCOc1nc(N)nc2nc[nH]c12 [NU2045, 2-amino-6-propoxypurine]
IC50 [1]: 50 µM

CCOc1nc(N)nc2nc[nH]c12 [NU2046, 2-amino-6-ethoxypurine]
IC50 [1]: 100 µM

C=CCOc1nc(N(C)C)nc2nc[nH]c12 [NU2048, 2-(N,N-dimethyl)amino-6-allyloxypurine]
IC50 [1]: 22 µM

CCC(COc1nc(N)nc2[nH]cnc12)(OC)OC [NU2050, 2-amino-6-(2,2-dimethoxy) butyloxypurine]
IC50 [1]: > 100 µM

C=CCOc1nc(Cl)nc2nc[nH]c12 [NU2051, 6-allyloxy-2-chloropurine]
IC50 [1]: 400 µM | effect of side chain at N9 or N7, or halo at C2, on activity [1]: activity drastically diminishes

CCCCOc1nc(N)nc2nc[nH]c12 [NU2052, 2-amino-6-n-butoxypurine]
IC50 [1]: 30 µM

CC(C)CCOc1nc(N)nc2nc[nH]c12 [NU2053, O^6-(3'-Methyl)butylguanine]
IC50 [1]: 18 µM | IC50 [3]: 70 µM

C=C(CC)COc1nc(N)nc2[nH]cnc12 [NU2054, O^6-(2-Ethylallyl)guanine]
IC50 [1]: 20 µM

C=C(COc1nc(N)nc2[nH]cnc12)C(C)C [NU2055, O^6-(2-Isopropylallyl)guanine]
IC50 [1]: 13 µM

CC(C)C(=O)COc1nc(N)nc2nc[nH]c12 [NU2056, O^6-(3-Methyl-2-oxobutyl)guanine]
IC50 [1]: 22 µM | inhibition at 100 µM [2, 4]: 33 ± 2% | IC50 [3]: 122 µM

CC(C)C1(COc2nc(N)nc3[nH]cnc23)OCCO1 [NU2057, O^6-(3-Methyl-2-oxobutyl)guanine ethylene acetal]
IC50 [1]: 105 µM

C=CCCCCOc1nc(N)nc2[nH]cnc12 [NU2061, O^6-(5'-Hexenyl)guanine]
IC50 [1]: 12 µM

CCCCCCCOc1nc(N)nc2nc[nH]c12 [NU2064, 2-amino-6-heptyloxypurine]
IC50 [1]: 31 µM

CC/C=C/CCOc1nc(N)nc2[nH]cnc12 [NU2067, O^6-(trans-3'-Hexenyl)guanine]
IC50 [1]: 38 µM

Nc1nc(OCC2CCCC2)c2nc[nH]c2n1 [NU2068, O^6 -(Cyclopentyl)methylguanine]
IC50 [1]: 30 µM | IC50 [3]: 34 µM

Nc1nc(OCC2CC=CCC2)c2nc[nH]c2n1 (stereo not drawn) [NU2073, O^6-(3'-Cyclohexenyl)methylguanine]
IC50 [1]: 3.2 µM | IC50 ([2]; CDK2, read-out: IC50 CDK2): 98 µM and 18.8 µM | inhibition at 100 µM [2, 4]: 87 ± 1% | IC50 [3]: 53 µM

Nc1nc(OCC2=CCCC2)c2nc[nH]c2n1 [NU2074, O^6-(1'-Cyclopentenyl)methylguanine]
IC50 [1]: 7 µM

Nc1nc(OCC2=CCCCC2)c2nc[nH]c2n1 [NU2076, O^6-(1'-Cyclohexenyl)methylguanine]
IC50 [1]: 8 µM

COC(COc1nc(N)nc2[nH]cnc12)(OC)c1ccccc1 [NU2081, 2-amino-6-(2,2-dimethoxy)-2-phenylethyloxypurine]
IC50 [1]: > 100 µM

CO[C@@H]1O[C@H](COc2nc(N)nc3[nH]cnc23)[C@H]2OC(C)(C)O[C@@H]12 [NU6012, O^6 -Ribofuranosylguanine]
% inhibition CDK1 [1]: 32% | inhibition at 100 µM [2, 4]: 16 ± 5% | IC50 [3]: > 100 µM

Nc1nc(OCC2CCCO2)c2nc[nH]c2n1 (stereo not drawn) [NU6013, 2-amino-6-(2-tetrahydro-furanyl)-methyloxypurine]
% inhibition CDK1 [1]: 48 ± 7% | IC50 ([2]; CDK2, read-out: IC50 CDK2): > 500 µM | inhibition at 100 µM [2, 4]: 39 ± 5% | IC50 [3]: 261 µM

CC1(C)O[C@H]2[C@@H](O1)[C@@H](COc1nc(N)nc3[nH]cnc13)O[C@@H]1OC(C)(C)O[C@@H]12 [NU6017]
% inhibition CDK1 [1]: 10 ± 6% | inhibition at 100 µM [2, 4]: 3 ± 7% | IC50 [3]: > 100 µM

Nc1nc(OCC2CCCCO2)c2nc[nH]c2n1 (stereo not drawn) [NU6019, 2-amino-6-(2-tetrahydropyranyl)-methyloxypurine]
% inhibition CDK1 [1]: 51 ± 4% | inhibition at 100 µM [2, 4]: 44 ± 2% | IC50 [3]: > 100 µM

CC1(C)OCC(COc2nc(N)nc3[nH]cnc23)O1 (stereo not drawn) [NU6021, O^6-(2,2-Dimethyl-1,3-dioxolane-4-methoxy)guanine]
% inhibition CDK1 [1]: 36 ± 9% | inhibition at 100 µM [2, 4]: 35 ± 6%

Nc1nc(OCC2COC3(CCCCC3)O2)c2nc[nH]c2n1 (stereo not drawn) [NU6022, O^6-(1,4-Dioxaspiro[4.5]decane-2-methoxy)guanine]
% inhibition CDK1 [1]: 26 ± 6% | inhibition at 100 µM [2, 4]: 27 ± 4%

CC1(C)OC[C@@H](COc2nc(N)nc3[nH]cnc23)O1 [NU6024, 2-amino-6-[(R)-2',2'-dimethyl-1',3'-dioxolane-5'-methyl]oxypurine]
% inhibition CDK1 [1]: 50 ± 1% | inhibition at 100 µM [2, 5]: 38 ± 3%

CC1(C)OC[C@H](COc2nc(N)nc3[nH]cnc23)O1 [NU6025, 2-amino-6-[(S)-2',2'-dimethyl-1',3'-dioxolane-5'-methyl]oxypurine]
% inhibition CDK1 [1]: 34 ± 2% | inhibition at 100 µM [2, 4]: 28 ± 4%

Nc1nc(OCC2COc3ccccc3O2)c2nc[nH]c2n1 (stereo not drawn) [NU6026, 2-amino-6-[1',4'-benzodioxanyl-2'-methyl]oxypurine]
% inhibition CDK2 ([2]; at 10 μM): 9% | inhibition at 10 µM ([2]; read-out: % inhibition CDK2, at 10 μM): 12% | inhibition at 100 µM [2, 4]: 96% | IC50 [3]: > 100 µM

Nc1nc(OCc2cccnc2)c2nc[nH]c2n1 [NU6029, 2-Amino-6-(3'-pyridyl)methyloxypurine]
% inhibition CDK1 [1]: 56 ± 4% | inhibition at 100 µM [2, 5]: 43 ± 4%

Nc1nc(N)c(N)c(OCC2CCCCC2)n1 [NU6035, 2,5,6-triamino-4(cyclohexylmethoxy)-pyrimidine]
% inhibition CDK1 [1]: 40 ± 4% | inhibition at 100 µM [2, 4]: 54 ± 8%

Nc1cc(OCc2ccccc2)nc(N)n1 [NU6038]
% inhibition CDK1 [1]: 3 ± 3% | inhibition at 100 µM [2, 5]: 0%

Nc1nc(N)c(N=O)c(OCc2ccccc2)n1 [NU6039, 2,6-diamino-4-(benzylmethoxy) 5-nitrosopyrimidine]
% inhibition CDK1 [1]: 54 ± 9% | inhibition at 100 µM [2, 4]: 51 ± 2%

Nc1nc(N)c(N)c(OCc2ccccc2)n1 [NU6040, 2,5,6-triamino-4-(benzylmethoxy) pyrimidine]
inhibition at 100 µM [2, 5]: 6 ± 10%

CNc1cc(Cl)nc(N)n1 [NU6042, 2-amino-4-chloro-6-methylamino pyrimidine]
inhibition at 100 µM [2, 5]: 14 ± 24%

Nc1nc(OCc2ccccc2)c2[nH]c(=O)[nH]c2n1 [NU6043, 2-Amino-6-benzyl-8-oxoguanine]
% inhibition CDK1 [1]: 13 ± 9% | inhibition at 100 µM [2, 5]: 8 ± 13%

Nc1cc(OCC2CC=CCC2)nc(N)n1 (stereo not drawn) [NU6046]
% inhibition CDK1 [1]: 16 ± 13% | inhibition at 100 µM [2, 4]: 8 ± 1%
